ChEMBL document CHEMBL1145390, “Synthesis and preliminary biological characterization of new semisynthetic derivatives of ramoplanin” (J Med Chem, 2007)
Values after ≈ are worked out from the molar mass of the structure shown.

Columns and labels:
[1] = test system: Enterococcus faecalis; experiment: Antibacterial activity against Enterococcus faecalis after 24 hrs by broth microdilution method; type: functional; conditions: read-out: MIC
[2] = test system: Staphylococcus aureus; experiment: Antibacterial activity against Staphylococcus aureus Smith after 24 hrs by broth microdilution method; type: functional; conditions: read-out: MIC
[3] = test system: Staphylococcus aureus; experiment: Antibacterial activity against methicillin-resistant Staphylococcus aureus clinical isolate after 24 hrs by broth microdilution method; type: functional; conditions: read-out: MIC
[4] = test system: Staphylococcus aureus; experiment: Antibacterial activity against methicillin-resistant and vancomycin-intermediate resistant Staphylococcus aureus clinical isolate after 24 hrs by broth microdilution method; type: functional; conditions: read-out: MIC
[5] = test system: Staphylococcus aureus; experiment: Antibacterial activity against vancomycin-intermediate resistant Staphylococcus aureus clinical isolate after 24 hrs by broth microdilution method; type: functional
[6] = test system: Streptococcus pyogenes; experiment: Antibacterial activity against Streptococcus pyogenes C203 after 24 hrs by broth microdilution method; type: functional; conditions: C203, 24 h, read-out: MIC
[7] = test system: Enterococcus faecium; experiment: Antibacterial activity against Enterococcus faecium after 24 hrs by broth microdilution method; type: functional; conditions: read-out: MIC
[8] = test system: Enterococcus faecium; experiment: Antibacterial activity against vancomycin A-resistant Enterococcus faecium clinical isolate after 24 hrs by broth microdilution method; type: functional; conditions: read-out: MIC
[9] = test system: Escherichia coli; experiment: Antibacterial activity against Escherichia coli SKF-12140 after 24 hrs by broth microdilution method; type: functional; conditions: read-out: MIC
[10] = test system: Candida albicans; experiment: Antifungal activity against Candida albicans SKF-2270 after 24 hrs by broth microdilution method; type: functional; conditions: read-out: MIC
[11] = Toxicity assessed as hemolysis in erythrocytes at 1200 mg/L; type: cell-based, Erythrocyte; conditions: human, read-out: Activity
[12] = test system: Staphylococcus aureus; experiment: Antibacterial activity against vancomycin-intermediate resistant Staphylococcus aureus clinical isolate in presence of 30% bovine serum after 24 hrs by broth microdilution method; type: functional
[13] = test system: Staphylococcus aureus; experiment: Antibacterial activity against Staphylococcus aureus Smith in presence of 30% bovine serum after 24 hrs by broth microdilution method; type: functional
[14] = test system: Enterococcus faecalis; experiment: Antibacterial activity against vancomycin-resistant Enterococcus faecalis in presence of 30% bovine serum after 24 hrs by broth microdilution method; type: functional
[15] = test system: Enterococcus faecium; experiment: Antibacterial activity against vancomycin A-resistant Enterococcus faecium clinical isolate in presence of 30% bovine serum after 24 hrs by broth microdilution method; type: functional
[16] = Toxicity assessed as hemolysis in erythrocytes at 600 mg/L; type: cell-based, Erythrocyte; conditions: human, read-out: Activity
[17] = Toxicity assessed as hemolysis in erythrocytes at 300 mg/L; type: cell-based, Erythrocyte; conditions: human, read-out: Activity
[18] = Toxicity assessed as hemolysis in erythrocytes at 400 mg/L; type: cell-based, Erythrocyte; conditions: human, read-out: Activity
[19] = Toxicity assessed as hemolysis in erythrocytes at 200 mg/L; type: cell-based, Erythrocyte; conditions: human, read-out: Activity
[20] = Toxicity assessed as hemolysis in erythrocytes at 100 mg/L; type: cell-based, Erythrocyte; conditions: human, read-out: Activity
[21] = test system: Enterococcus faecalis; experiment: Antibacterial activity against vancomycin A-resistant Enterococcus faecalis after 24 hrs by broth microdilution method; type: functional; conditions: read-out: MIC
[22] = Toxicity assessed as hemolysis in erythrocytes at 180 mg/L; type: cell-based, Erythrocyte; conditions: human, erythrocytes; read-out: Activity
[23] = Toxicity assessed as hemolysis in erythrocytes at 90 mg/L; type: cell-based, Erythrocyte; conditions: human, erythrocytes; read-out: Activity

| SMILES | MIC [1] | MIC [2] | MIC [3] | MIC [4] | MIC [5] | MIC [6] | MIC [7] | MIC [8] | MIC [9] | MIC [10] | MIC [12] | MIC [13] | MIC [14] | MIC [15] | hemolysis at 400 mg/L [18] | hemolysis at 200 mg/L [19] | hemolysis at 100 mg/L [20] | further results |
| --- | --- | --- | --- | --- | --- | --- | --- | --- | --- | --- | --- | --- | --- | --- | --- | --- | --- | --- |
| Cc1cccc(C)c1CC(=O)N[C@@H](CC(N)=O)C(=O)NC[C@@H]1C(=O)N[C@H](c2ccc(O)cc2)C(=O)N[C@H](CCCN)C(=O)N[C@H](C(C)C)C(=O)N[C@@H](c2ccc(O)cc2)C(=O)N[C@H](c2ccc(O)cc2)C(=O)N[C@@H]([C@@H](C)O)C(=O)N[C@@H](Cc2ccccc2)C(=O)N[C@H](CCCN)C(=O)N[C@@H](c2ccc(O[C@H]3O[C@H](CO)[C@@H](O)[C@H](O)[C@@H]3O[C@H]3O[C@H](CO)[C@@H](O)[C@H](O)[C@@H]3O)cc2)C(=O)N[C@H]([C@@H](C)O)C(=O)N[C@@H](c2ccc(O)cc2)C(=O)NCC(=O)N[C@@H](CC(C)C)C(=O)N[C@H](C)C(=O)N[C@@H](c2ccc(O)c(Cl)c2)C(=O)O[C@@H]1C(N)=O | ≤ 0.125 µg/mL | ≤ 0.125 µg/mL | ≤ 0.125 µg/mL | 1 µg/mL (≈ 0.388 µM) | 0.25 µg/mL (≈ 0.097 µM) | ≤ 0.125 µg/mL | 0.5 µg/mL (≈ 0.194 µM) | 0.25 µg/mL (≈ 0.097 µM) | > 128 µg/mL | > 128 µg/mL | 2 µg/mL | 0.5 µg/mL | 1 µg/mL | 4 µg/mL |  |  |  | hemolysis at 1200 mg/L [11]: 43%; hemolysis at 600 mg/L [16]: 13%; hemolysis at 300 mg/L [17]: 0% |
| CCc1ccccc1CC(=O)N[C@@H](CC(N)=O)C(=O)N[C@@H]1C(=O)N[C@H](c2ccc(O)cc2)C(=O)N[C@H](CCCN)C(=O)N[C@H]([C@@H](C)O)C(=O)N[C@@H](c2ccc(O)cc2)C(=O)N[C@H](c2ccc(O)cc2)C(=O)N[C@@H]([C@H](C)O)C(=O)N[C@@H](Cc2ccccc2)C(=O)N[C@H](CCCN)C(=O)N[C@@H](c2ccc(O[C@H]3O[C@H](CO)[C@@H](O)[C@H](O)[C@@H]3O[C@H]3O[C@H](CO)[C@@H](O)[C@H](O)[C@@H]3O)cc2)C(=O)N[C@H]([C@@H](C)O)C(=O)N[C@@H](c2ccc(O)cc2)C(=O)NCC(=O)N[C@@H](CC(C)C)C(=O)N[C@H](C)C(=O)N[C@@H](c2ccc(O)c(Cl)c2)C(=O)O[C@@H]1C(N)=O |  |  |  |  |  |  |  |  |  |  |  |  |  |  |  |  |  | hemolysis at 1200 mg/L [11]: 76%; hemolysis at 600 mg/L [16]: 1%; hemolysis at 300 mg/L [17]: 1% |
| CC(C)C/C=C/C=C/CC(=O)N[C@@H](CC(N)=O)C(=O)NC[C@@H]1C(=O)N[C@H](c2ccc(O)cc2)C(=O)N[C@H](CCCN)C(=O)N[C@H](C(C)C)C(=O)N[C@@H](c2ccc(O)cc2)C(=O)N[C@H](c2ccc(O)cc2)C(=O)N[C@@H]([C@@H](C)O)C(=O)N[C@@H](Cc2ccccc2)C(=O)N[C@H](CCCN)C(=O)N[C@@H](c2ccc(O[C@H]3O[C@H](CO)[C@@H](O)[C@H](O)[C@@H]3O[C@H]3O[C@H](CO)[C@@H](O)[C@H](O)[C@@H]3O)cc2)C(=O)N[C@H]([C@@H](C)O)C(=O)N[C@@H](c2ccc(O)cc2)C(=O)NCC(=O)N[C@@H](CC(C)C)C(=O)N[C@H](C)C(=O)N[C@@H](c2ccc(O)c(Cl)c2)C(=O)O[C@@H]1C(N)=O | ≤ 0.125 µg/mL | ≤ 0.125 µg/mL | ≤ 0.125 µg/mL | 1 µg/mL (≈ 0.388 µM) | 0.5 µg/mL (≈ 0.194 µM) | ≤ 0.125 µg/mL | ≤ 0.125 µg/mL |  | > 128 µg/mL | > 128 µg/mL | 4 µg/mL | 1 µg/mL | 0.5 µg/mL | 1 µg/mL | 78% | 87% | 85% |  |
| CCC/C=C/C=C/CC(=O)N[C@@H](CC(N)=O)C(=O)NC[C@@H]1C(=O)N[C@H](c2ccc(O)cc2)C(=O)N[C@H](CCCN)C(=O)N[C@H](C(C)C)C(=O)N[C@@H](c2ccc(O)cc2)C(=O)N[C@H](c2ccc(O)cc2)C(=O)N[C@@H]([C@@H](C)O)C(=O)N[C@@H](Cc2ccccc2)C(=O)N[C@H](CCCN)C(=O)N[C@@H](c2ccc(O[C@H]3O[C@H](CO)[C@@H](O)[C@H](O)[C@@H]3O[C@H]3O[C@H](CO)[C@@H](O)[C@H](O)[C@@H]3O)cc2)C(=O)N[C@H]([C@@H](C)O)C(=O)N[C@@H](c2ccc(O)cc2)C(=O)NCC(=O)N[C@@H](CC(C)C)C(=O)N[C@H](C)C(=O)N[C@@H](c2ccc(O)c(Cl)c2)C(=O)O[C@@H]1C(N)=O | ≤ 0.125 µg/mL | ≤ 0.125 µg/mL | ≤ 0.125 µg/mL | 1 µg/mL (≈ 0.39 µM) | 0.5 µg/mL (≈ 0.195 µM) | ≤ 0.125 µg/mL | ≤ 0.125 µg/mL |  | > 128 µg/mL | > 128 µg/mL | 2 µg/mL | 0.5 µg/mL | 0.5 µg/mL | 1 µg/mL | 78% | 37% | 23% |  |
| CC(C)/C=C/C=C\CC(=O)N[C@@H](CC(N)=O)C(=O)NC[C@@H]1C(=O)N[C@H](c2ccc(O)cc2)C(=O)N[C@H](CCCN)C(=O)N[C@H](C(C)C)C(=O)N[C@@H](c2ccc(O)cc2)C(=O)N[C@H](c2ccc(O)cc2)C(=O)N[C@@H]([C@@H](C)O)C(=O)N[C@@H](Cc2ccccc2)C(=O)N[C@H](CCCN)C(=O)N[C@@H](c2ccc(O[C@H]3O[C@H](CO)[C@@H](O)[C@H](O)[C@@H]3O[C@H]3O[C@H](CO)[C@@H](O)[C@H](O)[C@@H]3O)cc2)C(=O)N[C@H]([C@@H](C)O)C(=O)N[C@@H](c2ccc(O)cc2)C(=O)NCC(=O)N[C@@H](CC(C)C)C(=O)N[C@H](C)C(=O)N[C@@H](c2ccc(O)c(Cl)c2)C(=O)O[C@@H]1C(N)=O | ≤ 0.125 µg/mL | ≤ 0.125 µg/mL | ≤ 0.125 µg/mL | 1 µg/mL (≈ 0.39 µM) | 0.5 µg/mL (≈ 0.195 µM) | ≤ 0.125 µg/mL | 0.25 µg/mL (≈ 0.0974 µM) | ≤ 0.125 µg/mL | > 128 µg/mL | > 128 µg/mL | 2 µg/mL | 0.5 µg/mL | 0.5 µg/mL | 1 µg/mL | 97% | 81% | 64% |  |
| CCCCCCCC(=O)N[C@@H](CC(N)=O)C(=O)NC[C@@H]1C(=O)N[C@H](c2ccc(O)cc2)C(=O)N[C@H](CCCN)C(=O)N[C@H](C(C)C)C(=O)N[C@@H](c2ccc(O)cc2)C(=O)N[C@H](c2ccc(O)cc2)C(=O)N[C@@H]([C@@H](C)O)C(=O)N[C@@H](Cc2ccccc2)C(=O)N[C@H](CCCN)C(=O)N[C@@H](c2ccc(O[C@H]3O[C@H](CO)[C@@H](O)[C@H](O)[C@@H]3O[C@H]3O[C@H](CO)[C@@H](O)[C@H](O)[C@@H]3O)cc2)C(=O)N[C@H]([C@@H](C)O)C(=O)N[C@@H](c2ccc(O)cc2)C(=O)NCC(=O)N[C@@H](CC(C)C)C(=O)N[C@H](C)C(=O)N[C@@H](c2ccc(O)c(Cl)c2)C(=O)O[C@@H]1C(N)=O.Cl | 0.125 µg/mL | 0.125 µg/mL | 0.25 µg/mL | 2 µg/mL | 1 µg/mL | 0.06 µg/mL | 0.125 µg/mL | < 0.06 µg/mL | > 128 µg/mL | > 128 µg/mL | 2 µg/mL | 1 µg/mL | 1 µg/mL | 1 µg/mL | 59% | 5% | 0% | MIC [21]: 0.125 µg/mL; hemolysis at 180 mg/L [22]: 16%; hemolysis at 90 mg/L [23]: 0% |
| CC(C)C[C@@H]1NC(=O)CNC(=O)[C@H](c2ccc(O)cc2)NC(=O)[C@@H]([C@@H](C)O)NC(=O)[C@H](c2ccc(O[C@H]3O[C@H](CO)[C@@H](O)[C@H](O)[C@@H]3O[C@H]3O[C@H](CO)[C@@H](O)[C@H](O)[C@@H]3O)cc2)NC(=O)[C@@H](CCCN)NC(=O)[C@H](Cc2ccccc2)NC(=O)[C@H]([C@@H](C)O)NC(=O)[C@@H](c2ccc(O)cc2)NC(=O)[C@H](c2ccc(O)cc2)NC(=O)[C@@H](C(C)C)NC(=O)[C@@H](CCCN)NC(=O)[C@@H](c2ccc(O)cc2)NC(=O)[C@@H](CNC(=O)[C@H](CC(N)=O)NC(=O)Cc2ccccc2)[C@@H](C(N)=O)OC(=O)[C@H](c2ccc(O)c(Cl)c2)NC(=O)[C@@H](C)NC1=O.Cl | 2 µg/mL | 1 µg/mL | 1 µg/mL | 4 µg/mL | 2 µg/mL |  | 2 µg/mL | 1 µg/mL | > 128 µg/mL | > 128 µg/mL | 2 µg/mL | 1 µg/mL | 2 µg/mL | 1 µg/mL | 2% | 0% | 3% | MIC [21]: 2 µg/mL; hemolysis at 180 mg/L [22]: 0%; hemolysis at 90 mg/L [23]: 0% |
